Data reported in US20200246308A1, “SYNERGISTIC COMBINATIONS OF UROLITHINS A AND B FOR IMPROVING COGNITIVE CAPACITY OR COGNITIVE FUNCTION” (Natreon, Inc., priority 2018, published 2020).
Entries after “also recorded” stand apart in the source; their conditions may differ.

How the values were obtained:
[1] = molecular target: T1, recombinant human Acetylcholinesterase-induced β-Amyloid (Aβ40) Aggregation (Homo sapiens, UniProt P22303); test: Inhibition of human recombinant AChE-induced β-amyloid peptide aggregation, ThT method; type: biochemical; details: test compounds 50 μM, B:A in μM, 48 h
T1 construct: purchased Sigma Aldrich
T1 sequence (P22303 32-614): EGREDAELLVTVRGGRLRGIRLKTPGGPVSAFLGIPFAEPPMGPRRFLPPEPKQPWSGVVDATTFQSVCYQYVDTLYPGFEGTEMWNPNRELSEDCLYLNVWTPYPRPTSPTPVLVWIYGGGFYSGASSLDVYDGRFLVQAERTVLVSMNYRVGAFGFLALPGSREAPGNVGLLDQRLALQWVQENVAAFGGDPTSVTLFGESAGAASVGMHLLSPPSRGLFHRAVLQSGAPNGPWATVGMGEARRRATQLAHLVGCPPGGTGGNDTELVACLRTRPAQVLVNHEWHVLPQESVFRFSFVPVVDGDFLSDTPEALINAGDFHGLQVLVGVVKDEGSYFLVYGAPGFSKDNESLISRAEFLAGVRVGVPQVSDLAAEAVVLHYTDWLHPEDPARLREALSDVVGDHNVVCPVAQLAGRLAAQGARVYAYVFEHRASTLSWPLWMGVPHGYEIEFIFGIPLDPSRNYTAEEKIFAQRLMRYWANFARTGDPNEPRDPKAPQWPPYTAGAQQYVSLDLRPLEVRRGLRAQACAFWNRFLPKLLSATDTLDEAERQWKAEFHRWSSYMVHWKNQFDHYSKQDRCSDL
Procedure: The Aβ1-40 (10 μM and 30 μM) was incubated alone and independently with different concentrations of test compounds in the ratios shown in Tables 6 and 7, respectively.
2 μL of different concentrations of Aβ40 (10 and 30 μM) was incubated with 16 μL of AChE in the presence of different ratio of test compounds to obtain final concentrations of 30 or 10 μM Aβ40, […], 10, 20, 50 μM test compounds and 2 μL assay buffer ([…]). The mixture was incubated at room temperature for 24 or 48 hr in dark (Time period may be changed according to experiment).
Fluorescence intensities were obtained for Aβ40 aggregation in the presence of inhibitors, in the absence of inhibitors and the blanks or solvent control. After incubation, 178 μL of 20 μM ThT was added.
The percentage inhibition of the AChE-induced Aβ1-40 aggregation was calculated as follows.
Chemical reagents and starting materials were employed as above.

[2] = system: scopolamine induced amnesic rat model; test: Passive avoidance test, scopolamine induced amnesic rat model (Example 9B); type: in vivo, Male Wistar rats; details: p.o. 7 days: B 50, A 50, B:A 10:50 and 50:50 mg/kg, Shilajit 25 mg/kg b.i.d; scopolamine 1 mg/kg i.p.
Procedure: The experiment was conducted in accordance with the Principles of laboratory animal care. Male Wistar rats (200-250 g) were purchased from the Central Animal House, Institute of Medical Sciences, Banaras Hindu University (BHU), Varanasi, India. Experiments on animals were approved by the Institutional Animal Ethics Committee of BHU, Varanasi, India. The animals were housed in polypropylene cages under controlled environmental conditions of temperature of 25±1° C. and 45-55% relative humidity and a 12:12 h light/dark cycle. The experimental animals had free access to commercial rat feed and water ad libitum during the experiment. Animals were acclimatized for at least one week before using them for experiments and exposed only once to the experiment.
Rats were randomly allocated into eight study groups containing six in each group (n=6), as follows:
Drug solution was freshly prepared in 0.3% CMC and administered by oral gavage once a day, for a period of 7 days. Briefly, the whole experiment was conducted for 8 days. […]
Passive avoidance (PA) test: The PA task is a fear-aggravated test used to evaluate learning and memory in rodent models of CNS disorders. […] The transfer of the animal from one compartment to another was recorded and transfer latency time (TLT) was calculated in seconds. […]

Human recombinant AChE = molecular target: T2, Human recombinant AChE (Homo sapiens, UniProt P22303); test: In-vitro human recombinant AChE inhibition assay, Ellman method; type: biochemical; details: Table 10
T2 construct: purchased Sigma Aldrich
T2 sequence (P22303 32-614): as above
Excerpt: In-vitro human recombinant AChE inhibition assay: Procedure described by Ellman et al. was used after some modification for AChE inhibition assay. Human recombinant AChE was purchased from Sigma Aldrich (St. Louis, Mo.). Acetylthiocholine iodide (ATCI), 5,5′-dithiobis (2-nitrobenzoic acid) (DTNB-Ellman's reagent) were purchased from Himedia Pvt. Ltd. (New Delhi, India). Donepezil was used as positive control groups. Tris-HCl buffer (pH 8) was used to perform the in-vitro assay.
Further, substrate i.e. ATCI (15 mM, 30 μL) was added and it was incubated for additional 30 min. Finally 160 μL (1.5 mM) of DTNB was added and the absorbance was recorded at 415 nm using Epoch microplate reader (BioTek). The IC50 value was calculated using absorbance obtained from the test and standard compounds. The assay was performed in triplicate and in three independent runs (see Equation 1).

[3] = system: cortical brain mitochondria; test: Mitochondrial respiration and respiratory control ratio (RCR) of isolated brain cortex mitochondria after 21 days treatment; details: for Respiratory control ratio (RCR): old mice (18 to 20 month), 50 mg/kg p.o.; for Respiratory control ratio (RCR) / Mitochondrial respiration in all states: 21 days; for State II respiratory rate / Mitochondrial respiration in all states: 50 mg/kg; for Mitochondrial respiration in all states: young and old mice, vs respective normal control; for Respiratory rate at state V (complex I): FCCP
Procedure: Briefly the mitochondria were added to the chamber and respiratory states were evaluated by suitable substrates and inhibitors. Purified mitochondrial protein was suspended in respiration buffer in a final volume of 250 μL. State II respiration was initiated by addition of Pyruvate/Malate (P/M), with basal rate of respiration. […] State IV was measured by addition of oligomycin. The respiration returns to basal rate since the ATP synthase is shut down and no electrons are allowed to return to the matrix. The electron transport chain (ETC) continues only to maintain mitochondrial membrane potential due to loss of protons back into the matrix. State V was measured by addition of FCCP. This represents the maximum rate of respiration, causing uncoupling of the ETC to ATP synthesis, and allows protons to rush back into the matrix. Rotenone was then added to shut down complex I-driven respiration. State V (succinate) was determined by addition of succinate. This is the maximum rate of respiration via complex II, since FCCP is present in the system.

Row | Compound | inhibition of Aβ40 aggregation ([1]; Aβ40 30 μM) [%] | inhibition of Aβ40 aggregation ([1]; amyloid beta 10 μM) [%] | Transfer latency time (TLT), retention trial vs acquisition trial [2] | IC50 (Human recombinant AChE) [µg/mL] | Respiratory control ratio (RCR) ([3]; vs old control) | State II respiratory rate ([3]; old mice, vs old control) | Mitochondrial respiration in all states [3] | State II respiratory rate ([3]; young mice, vs young control) | Respiratory rate at state V (complex I) ([3]; young mice)
1 | O=c1oc2cc(O)ccc2c2ccc(O)cc12 [Urolithin A, 3,8-dihydroxy-dibenzo-alpha-pyrone] | ~30 | ~34 | significant increase in TLT of retention trial in comparison to acquisition trial but less effective as compared to the vehicle treated group | 410.50 ± 38.52 | significantly increased the RCR | found to be increased | significantly increased mitochondrial respiration | significant increases in respiratory rate | significantly found to be increased
2 | O=c1oc2cc(O)ccc2c2ccccc12 [Urolithin B, 3-hydroxy-dibenzo-alpha-pyrone] | ~43 | ~46 | significant increase in TLT of retention trial in comparison to acquisition trial but less effective as compared to the vehicle treated group | 272.67 ± 42.11 | significantly increased the RCR | found to be increased | significantly increased mitochondrial respiration | significant increases in respiratory rate | significantly found to be increased; also recorded: less effect
